{
  "source": "paper PMC9503608",
  "about": "“An Insight into Symmetrical Cyanine Dyes as Promising Selective Antiproliferative Agents in Caco-2 Colorectal Cancer Cells” (Molecules, 2022)",
  "key": {"[1]": {"assay": "MTT cell viability assay, NHDF", "assay_type": "cell-based, human", "details": "human, normal human dermal fibroblasts (NHDF), single concentration of 10 µM, 72 h, mean ± SD; read-out: cell viability percentage in relation with control, NHDF", "method": "(§1) Caco-2, MCF-7, PC-3, and NHDF cell lines were obtained from the American Type Culture Collection (ATCC) and maintained in 75 cm^2 culture flasks in a humidified atmosphere at 37 °C with 5% carbon dioxide using a LEEC Culture Safe Precision CO2 Incubator. The culture media was renewed every two to three days. The NHDF cell line was cultured in Roswell Park Memorial Institute (RPMI) medium supplemented with 10% of inactivated fetal bovine serum (FBS), 2 mM of L-glutamine, 10 mM of 4-(2-hydroxyethyl)-1-piperazineethanesulfonic acid (HEPES), 1 mM of sodium pyruvate, and 1% of antibiotic/antimycotic mixture (Ab; 10,000 U/mL of penicillin G, […] of streptomycin, and 25 µg/mL of amphotericin B). The PC-3 cell line was also cultured in RPMI 1640 medium supplemented with 10% inactivated FBS and 1% of an antibiotic mixture (Sp; 10,000 U/mL of penicillin G and […] of streptomycin). The Caco-2 and MCF-7 cell lines were grown in Dulbecco’s Modified Eagle Medium (DMEM). Caco-2 was supplemented with 20% of inactivated FBS and 1% of Sp. On the other hand, the MCF-7 medium was complemented with 10% of inactivated FBS and 1% of Ab. All manipulations were performed in a Labculture Class II A2 Biological Safety Cabinet.\n(§2) After the near confluency of cultures, cells were detached with a solution of 0.125 g/L trypsin and 0.02 g/L ethylenediaminetetracetic acid (EDTA), counted using the trypan blue method, resuspended, and seeded in 96-well culture plates (100 µL, 2 × 10^4 cells/mL). Following 48 h of adherence, cells were treated with the test solutions and incubated for 72 h. This incubation, as well as the solution manipulations, were performed in an environment protected from light. After the incubation, the medium was replaced with a fresh incomplete culture medium (without FBS and Ab or Sp) and MTT solution (5 mg/mL in phosphate buffer saline (PBS)). After additional incubation for 4 h, the MTT medium was removed, formazan crystals were dissolved in DMSO, and the optical density of each well was measured at 570 nm using a microplate spectrophotometer Bio-Rad xMark. Untreated cells were used as a negative control and 5-FU as the positive control. The results were expressed as the relative cell proliferation relative to the negative control cells. […] To determine the IC50 values, Caco-2, MCF-7, PC-3, and NHDF cells were exposed to increasing concentrations between 0.001 and 100 μM."}, "[2]": {"tested_on": "normal human dermal fibroblasts (NHDF)", "assay": "MTT cell viability assay, NHDF", "assay_type": "cell-based", "details": "for IC50: Homo sapiens, NHDF, 72 h of incubation, MTT, protected from light", "method": "as §1, §2"}, "[3]": {"assay": "MTT cell viability assay, Caco-2", "assay_type": "cell-based, human", "details": "human, 72 h, read-out: SI Caco-2 (selectivity index, cancer versus NHDF)", "method": "as §1, §2"}, "[4]": {"tested_on": "Caco-2 colorectal adenocarcinoma cell line", "assay": "MTT cell viability assay, Caco-2", "assay_type": "cell-based, human", "details": "for viability at 10 µM / IC50: Homo sapiens; for viability at 10 µM: read-out: cell viability percentage in relation with control, Caco-2; for IC50: 72 h of incubation, MTT, protected from light", "method": "as §1, §2"}, "[5]": {"tested_on": "MCF-7 breast adenocarcinoma cell line", "assay": "MTT cell viability assay, MCF-7", "assay_type": "cell-based, human", "details": "for viability at 10 µM: Homo sapiens, read-out: cell viability percentage in relation with control, MCF-7", "method": "as §1, §2"}, "[6]": {"tested_on": "PC-3 prostate adenocarcinoma cell line", "assay": "MTT cell viability assay, PC-3", "assay_type": "cell-based, human", "method": "as §1, §2"}, "[7]": {"details": "Caco-2, 72 h, single concentration of 10 µM, 72 h, mean ± SD"}, "[8]": {"details": "MCF7, 72 h, single concentration of 10 µM, 72 h, mean ± SD"}, "[9]": {"details": "Homo sapiens, 72 h, single concentration of 10 µM, 72 h, mean ± SD; read-out: cell viability percentage in relation with control, PC-3"}, "[10]": {"details": "single concentration of 10 µM, 72 h, mean ± SD"}},
  "note": "Read-outs that look alike come from different tables or passages of the source.",
  "data": [
    {"smiles": "CCN1C(=Cc2sc3ccccc3[n+]2CC)Sc2ccccc21.[O-][Cl+3]([O-])([O-])[O-]", "note": "[Dye 7, 3-Ethyl-2-((3-ethylbenzo[d]thiazol-2(3H)-ylidene)methyl)benzo[d]thiazol-3-ium perchlorate]", "values": [
      {"measurement": "viability at 72 h, 10 µM", "setting": "[1]", "value": "3.34 ± 0.14", "unit": "%"},
      {"measurement": "IC50", "setting": "[2]", "value": 830, "unit": "nM"},
      {"measurement": "selectivity ratio at 72 h", "setting": "[3]; Caco-2 versus NHDF", "value": 3},
      {"measurement": "viability at 10 µM", "setting": "[4]; Caco-2, 72 h", "value": "3.11 ± 0.94", "unit": "%"},
      {"measurement": "IC50", "setting": "[4]; Caco-2", "value": 280, "unit": "nM"},
      {"measurement": "viability at 10 µM", "setting": "[5]; MCF7, 72 h", "value": "0.96 ± 0.61", "unit": "%"},
      {"measurement": "viability at 10 µM", "setting": "[6]; Homo sapiens, 72 h, read-out: cell viability percentage in relation with control, PC-3", "value": "1.19 ± 0.29", "unit": "%"},
      {"measurement": "melting point", "value": "296 to 297", "unit": "°C"}
    ]},
    {"smiles": "COC(=O)CN1C(=Cc2sc3ccccc3[n+]2CC(=O)OC)Sc2ccccc21.[Br-]", "note": "[Dye 9, 3-(2-Methoxy-2-oxoethyl)-2-((3-(2-methoxy-2-oxoethyl)benzo[d]thiazol-2(3H)-ylidene)methyl)benzo[d]thiazol-3-ium bromide]", "values": [
      {"measurement": "viability at 72 h, 10 µM", "setting": "[1]", "value": "47.9 ± 3.64", "unit": "%"},
      {"measurement": "selectivity ratio at 72 h", "setting": "[3]; Caco-2, Caco-2 versus NHDF", "value": 0.7},
      {"measurement": "IC50", "setting": "[4]; Caco-2, 72 h", "value": 1000, "unit": "nM"},
      {"measurement": "viability at 10 µM", "setting": "[4]; [7]", "value": "47 ± 6.81", "unit": "%"},
      {"measurement": "viability at 10 µM", "setting": "[5]; [8]", "value": "49 ± 13.9", "unit": "%"},
      {"measurement": "viability at 10 µM", "setting": "[6]; [9]", "value": "46.8 ± 14", "unit": "%"},
      {"measurement": "melting point", "value": "226 to 227", "unit": "°C"}
    ]},
    {"smiles": "CN1C(=Cc2ccc3ccccc3[n+]2C)C=Cc2ccccc21.[I-]", "note": "[Dye 13, 1-Methyl-2-((1-methylquinolin-2(1H)-ylidene)methyl)quinolin-1-ium iodide]", "values": [
      {"measurement": "viability at 72 h, 10 µM", "setting": "[1]", "value": "8.37 ± 2.26", "unit": "%"},
      {"measurement": "IC50", "setting": "[2]; 72 h", "value": 590, "unit": "nM"},
      {"measurement": "selectivity ratio at 72 h", "setting": "[3]; Caco-2, Caco-2 versus NHDF", "value": 1},
      {"measurement": "IC50", "setting": "[4]; Caco-2, 72 h", "value": 580, "unit": "nM"},
      {"measurement": "viability at 10 µM", "setting": "[4]; [7]", "value": "7.81 ± 0.51", "unit": "%"},
      {"measurement": "viability at 10 µM", "setting": "[5]; [8]", "value": "11.8 ± 1.89", "unit": "%"},
      {"measurement": "viability at 10 µM", "setting": "[6]; [9]", "value": "7.42 ± 1.27", "unit": "%"},
      {"measurement": "melting point", "value": "240 to 241", "unit": "°C"}
    ]},
    {"smiles": "CCN1C(=Cc2sc3ccccc3[n+]2CC)Sc2ccccc21", "note": "[Dye 6]", "values": [
      {"measurement": "viability at 72 h, 10 µM", "setting": "[1]", "value": "3.37 ± 0.65", "unit": "%"},
      {"measurement": "IC50", "setting": "[2]; 72 h", "value": 490, "unit": "nM"},
      {"measurement": "selectivity ratio at 72 h", "setting": "[3]; Caco-2, Caco-2 versus NHDF", "value": 1.6},
      {"measurement": "IC50", "setting": "[4]; Caco-2, 72 h", "value": 300, "unit": "nM"},
      {"measurement": "viability at 10 µM", "setting": "[4]; [7]", "value": "3.52 ± 0.3", "unit": "%"},
      {"measurement": "viability at 10 µM", "setting": "[5]; [8]", "value": "1.08 ± 0.23", "unit": "%"},
      {"measurement": "viability at 10 µM", "setting": "[6]; [9]", "value": "2.06 ± 0.89", "unit": "%"}
    ]},
    {"smiles": "C(=C1Sc2ccccc2N1Cc1ccccc1)c1sc2ccccc2[n+]1Cc1ccccc1.[I-]", "note": "[Dye 8, 3-Benzyl-2-((3-benzylbenzo[d]thiazol-2(3H)-ylidene)methyl)benzo[d]thiazol-3-ium iodide]", "values": [
      {"measurement": "viability at 72 h, 10 µM", "setting": "[1]", "value": "2.04 ± 0.39", "unit": "%"},
      {"measurement": "IC50", "setting": "[2]; 72 h", "value": 930, "unit": "nM"},
      {"measurement": "selectivity ratio at 72 h", "setting": "[3]; Caco-2, Caco-2 versus NHDF", "value": 1},
      {"measurement": "IC50", "setting": "[4]; Caco-2, 72 h", "value": 950, "unit": "nM"},
      {"measurement": "viability at 10 µM", "setting": "[4]; [7]", "value": "0.32 ± 0.03", "unit": "%"},
      {"measurement": "viability at 10 µM", "setting": "[5]; [8]", "value": "1.47 ± 1.13", "unit": "%"},
      {"measurement": "viability at 10 µM", "setting": "[6]; [9]", "value": "1.16 ± 0.49", "unit": "%"},
      {"measurement": "melting point", "value": "249 to 250", "unit": "°C"}
    ]},
    {"smiles": "CCN1C(=CC=Cc2[se]c3ccccc3[n+]2CC)[Se]c2ccccc21.[I-]", "note": "[Dye 16, 3-Ethyl-2-(3-(3-ethylbenzo[d][1,3]selenazol-2(3H)-ylidene)prop-1-en-1-yl)benzo[d][1,3]selenazol-3-ium iodide]", "values": [
      {"measurement": "viability at 72 h, 10 µM", "setting": "[1]", "value": "4.53 ± 0.39", "unit": "%"},
      {"measurement": "IC50", "setting": "[2]", "value": 480, "unit": "nM"},
      {"measurement": "selectivity ratio at 72 h", "setting": "[3]; Caco-2 versus NHDF", "value": 6.5},
      {"measurement": "IC50", "setting": "[4]; Caco-2", "value": 70, "unit": "nM"},
      {"measurement": "viability at 10 µM", "setting": "[4]; Caco-2, single concentration of 10 µM, 72 h, mean ± SD", "value": "1.25 ± 0.39", "unit": "%"},
      {"measurement": "viability at 10 µM", "setting": "[5]; MCF7, single concentration of 10 µM, 72 h, mean ± SD", "value": "1.39 ± 0.68", "unit": "%"},
      {"measurement": "viability at 10 µM", "setting": "[6]; Homo sapiens; single concentration of 10 µM, 72 h, mean ± SD; read-out: cell viability percentage in relation with control, PC-3", "value": "3.92 ± 0.75", "unit": "%"},
      {"measurement": "melting point", "value": "272 to 273 °C (dec.)"}
    ]},
    {"smiles": "CN1C(=Cc2sc3ccccc3[n+]2C)Sc2ccccc21.[Br-]", "note": "[Dye 3, 3-Methyl-2-((3-methylbenzo[d]thiazol-2(3H)-ylidene)methyl)benzo[d]thiazol-3-ium bromide]", "values": [
      {"measurement": "IC50", "setting": "[2]; 72 h", "value": 410, "unit": "nM"},
      {"measurement": "cell viability percentage in relation with control, NHDF", "setting": "[2]; [10]", "value": "3.93 ± 0.75", "unit": "%"},
      {"measurement": "SI Caco-2 (selectivity index, cancer versus NHDF)", "setting": "[4]; Caco-2 versus NHDF, 72 h", "value": 0.8},
      {"measurement": "IC50", "setting": "[4]; Caco-2, 72 h", "value": 520, "unit": "nM"},
      {"measurement": "viability at 10 µM", "setting": "[4]; [7]", "value": "1.68 ± 0.53", "unit": "%"},
      {"measurement": "cell viability percentage in relation with control, MCF-7", "setting": "[5]; [10]", "value": "0.52 ± 0.39", "unit": "%"},
      {"measurement": "viability at 10 µM", "setting": "[6]; [9]", "value": "1.27 ± 0.31", "unit": "%"}
    ]}
  ]
}
